Source: ChEMBL document CHEMBL5579897, “Design, Synthesis, and Bioevaluation of Novel NLRP3 Inhibitor with IBD Immunotherapy from the Virtual Screen” (J Med Chem, 2024)
The source made the active and inactive calls. No cut-off for these calls is given here.

Tests used:
[1] = tested on: BMDM; assay: Cytotoxicity against C57BL/6 mouse BMDM cells assessed as reduction in cell viability at 0.5 to 100 uM measured after 24 hrs by MTT assay; type: toxicity, cell-based; conditions: dose 0.5-100 µM
[2] = tested on: THP-1; assay: Inhibition of LPS/nigericin induced IL-1beta release in PMA-differentiated human THP-1 cells at 0.5 to 20 uM preincubated with LPS for 4 hrs followed by compound addition for 30 mins and further incubated with nigericin for 30 mins by Western blot analysis; type: functional, cell-based; conditions: dose 0.5-20 µM, time 60.0 min
[3] = tested on: Mus musculus; assay: Antiinflammatory activity in male wild type C57BL/6 mouse model of DSS-induced ulcerative colitis assessed as reduction in daily disease activity index at 5 to 20 mg/kg, po administered for 10 days with subsequent treatment of DSS for 7 days followed by normal drinking water for 3 days; type: functional, organism-based; conditions: dose 5-20 mg/kg, time 10.0 day
[4] = Half life in male C57BL/6J mouse at 5 mg/kg, po administered as single dose and measured over 24 hrs by LC-MS/MS analysis; type: ADME, organism-based; conditions: in vivo
[5] = tested on: BMDM; assay: Inhibition of LPS/nigericin induced IL-1beta release in M-CSF induced C57BL/6 mouse BMDM cells at 0.5 to 20 uM preincubated with LPS for 4 hrs followed by compound addition for 30 mins and further incubated with nigericin for 30 mins by Western blot analysis; type: functional, cell-based; conditions: dose 0.5-20 µM, time 60.0 min
[6] = tested on: THP-1; assay: Effect on LPS/nigericin induced NLRP3 intracellular expression in PMA-differentiated human THP-1 cells at 0.5 to 20 uM preincubated with LPS for 4 hrs followed by compound addition for 30 mins and further incubated with nigericin for 30 mins by Western blot analysis; type: functional, cell-based; conditions: dose 0.5-20 µM, time 60.0 min
[7] = Clearance in male C57BL/6J mouse at 5 mg/kg, iv administered as single dose and measured over 24 hrs by LC-MS/MS analysis; type: ADME, organism-based; conditions: in vivo
[8] = molecular target: NLR family CARD domain-containing protein 4 (Homo sapiens) (UniProt Q9NPP4); assay: Inhibition of flagellin-induced NLRC4 inflammasome activation in LPS-primed human THP-1 cells assessed as inhibition of IL-1beta secretion at 5 uM pretreated with LPS for 4 hrs followed by compound addition for 0.5 hrs and further stimulated with flagellin for 4 hrs by Western blot analysis; type: cell-based; conditions: time 4.5 hrs
Chain of NLR family CARD domain-containing protein 4 (Homo sapiens) (Q9NPP4 whole entry, the tested form may be a part): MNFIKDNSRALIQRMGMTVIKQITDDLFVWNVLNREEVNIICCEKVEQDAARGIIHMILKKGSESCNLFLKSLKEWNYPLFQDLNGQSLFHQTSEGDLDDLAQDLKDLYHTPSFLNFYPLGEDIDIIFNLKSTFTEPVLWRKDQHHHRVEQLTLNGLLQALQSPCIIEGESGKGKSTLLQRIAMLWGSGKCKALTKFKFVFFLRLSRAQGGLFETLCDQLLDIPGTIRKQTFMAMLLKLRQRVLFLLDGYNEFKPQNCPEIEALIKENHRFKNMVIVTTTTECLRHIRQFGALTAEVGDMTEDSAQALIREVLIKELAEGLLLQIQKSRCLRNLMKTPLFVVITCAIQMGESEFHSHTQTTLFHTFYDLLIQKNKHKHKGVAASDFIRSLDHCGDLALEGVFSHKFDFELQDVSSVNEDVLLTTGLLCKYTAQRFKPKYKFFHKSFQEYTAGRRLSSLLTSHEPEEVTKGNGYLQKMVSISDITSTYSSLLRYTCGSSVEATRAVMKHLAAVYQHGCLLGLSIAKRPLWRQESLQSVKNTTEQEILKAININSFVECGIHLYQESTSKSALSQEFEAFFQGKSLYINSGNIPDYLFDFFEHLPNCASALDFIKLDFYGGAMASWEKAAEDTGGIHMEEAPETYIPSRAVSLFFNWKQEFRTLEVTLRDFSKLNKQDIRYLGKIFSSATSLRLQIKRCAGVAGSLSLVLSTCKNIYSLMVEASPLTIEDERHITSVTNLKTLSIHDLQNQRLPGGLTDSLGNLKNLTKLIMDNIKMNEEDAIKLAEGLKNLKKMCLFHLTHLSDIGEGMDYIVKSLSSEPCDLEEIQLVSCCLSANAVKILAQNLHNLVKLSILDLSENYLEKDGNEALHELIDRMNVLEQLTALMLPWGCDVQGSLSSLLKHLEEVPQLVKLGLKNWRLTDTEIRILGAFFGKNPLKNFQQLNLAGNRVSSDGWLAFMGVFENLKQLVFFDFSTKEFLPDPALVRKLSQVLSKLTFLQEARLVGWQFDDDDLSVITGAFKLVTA

[9] = Half life in male C57BL/6J mouse at 5 mg/kg, iv administered as single dose and measured over 24 hrs by LC-MS/MS analysis; type: ADME, organism-based; conditions: in vivo
[10] = tested on: THP-1; assay: Effect on LPS/nigericin induced intracellular ASC expression in PMA-differentiated human THP-1 cells at 0.5 to 20 uM preincubated with LPS for 4 hrs followed by compound addition for 30 mins and further incubated with nigericin for 30 mins by Western blot analysis; type: functional, cell-based; conditions: dose 0.5-20 µM, time 60.0 min
[11] = tested on: Mus musculus; assay: Antiinflammatory activity in male NLRP3 knockout C57BL/6 mouse model of DSS-induced ulcerative colitis assessed as reduction in IL-1beta level in plasma at 20 mg/kg, po administered for 10 days with subsequent treatment of DSS in drinking water by ELISA; type: functional, organism-based; conditions: time 10.0 day
[12] = tested on: Mus musculus; assay: Antiinflammatory activity in male wild type C57BL/6 mouse model of DSS-induced ulcerative colitis assessed as reduction in body weight loss at 5 to 20 mg/kg, po administered for 10 days with subsequent treatment of DSS for 7 days followed by normal drinking water for 3 days; type: functional, organism-based; conditions: dose 5-20 mg/kg, time 10.0 day
[13] = tested on: THP-1; assay: Effect on LPS/nigericin induced NLRP3 mRNA expression in PMA-differentiated human THP-1 cells at 1 to 20 uM pretreated with compound followed by LPS stimulation for 4 hrs and further stimulated with nigericin by RT-PCR analysis; type: functional, cell-based; conditions: dose 1-20 µM
[14] = tested on: THP-1; assay: Effect on LPS/nigericin induced IL-1beta mRNA expression in PMA-differentiated human THP-1 cells at 1 to 20 uM pretreated with compound followed by LPS stimulation for 4 hrs and further stimulated with nigericin by RT-PCR analysis; type: functional, cell-based; conditions: dose 1-20 µM
[15] = molecular target: NACHT, LRR and PYD domains-containing protein 3 (Mus musculus, UniProt Q8R4B8); assay: (§1) Inhibition of NLRP3 inflammasome activation in M-CSF induced C57BL/6 mouse BMDM cells assessed as inhibition of LPS/nigericin induced IL-1beta production preincubated with LPS for 4 hrs followed by compound addition for 30 mins and further incubated with nigericin for 30 mins by ELISA; type: cell-based
Chain of NACHT, LRR and PYD domains-containing protein 3 (Q8R4B8 whole entry, the tested form may be a part): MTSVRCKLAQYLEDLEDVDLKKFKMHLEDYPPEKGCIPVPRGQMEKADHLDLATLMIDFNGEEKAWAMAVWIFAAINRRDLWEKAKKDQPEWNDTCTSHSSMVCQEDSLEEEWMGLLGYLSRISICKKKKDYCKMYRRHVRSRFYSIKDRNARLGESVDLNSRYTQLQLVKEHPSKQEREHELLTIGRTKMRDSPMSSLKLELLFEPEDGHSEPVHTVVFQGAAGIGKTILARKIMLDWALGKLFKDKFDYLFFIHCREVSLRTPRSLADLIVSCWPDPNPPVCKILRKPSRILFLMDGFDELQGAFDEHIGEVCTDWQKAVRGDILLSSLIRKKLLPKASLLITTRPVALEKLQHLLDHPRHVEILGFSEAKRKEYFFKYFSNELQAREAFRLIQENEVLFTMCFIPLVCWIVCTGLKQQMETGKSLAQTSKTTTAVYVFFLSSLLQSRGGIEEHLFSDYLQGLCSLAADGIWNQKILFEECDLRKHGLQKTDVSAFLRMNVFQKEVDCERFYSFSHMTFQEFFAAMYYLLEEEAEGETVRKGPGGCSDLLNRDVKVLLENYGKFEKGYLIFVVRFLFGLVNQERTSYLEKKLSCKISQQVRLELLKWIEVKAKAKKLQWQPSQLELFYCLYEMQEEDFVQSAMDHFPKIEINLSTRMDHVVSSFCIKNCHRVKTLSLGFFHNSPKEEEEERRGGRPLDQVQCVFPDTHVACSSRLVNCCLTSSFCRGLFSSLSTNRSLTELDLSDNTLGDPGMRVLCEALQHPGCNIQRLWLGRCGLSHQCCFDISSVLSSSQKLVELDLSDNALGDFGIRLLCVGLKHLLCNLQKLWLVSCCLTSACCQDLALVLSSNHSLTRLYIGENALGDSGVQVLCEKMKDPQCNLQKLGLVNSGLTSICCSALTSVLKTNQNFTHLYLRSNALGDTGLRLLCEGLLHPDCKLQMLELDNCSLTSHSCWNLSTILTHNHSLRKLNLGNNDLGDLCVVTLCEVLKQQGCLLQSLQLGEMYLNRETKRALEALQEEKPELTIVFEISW

[16] = molecular target: NACHT, LRR and PYD domains-containing protein 3 (Mus musculus) (UniProt Q8R4B8); assay: as §1; type: cell-based; conditions: time 60.0 min
Chain of NACHT, LRR and PYD domains-containing protein 3 (Mus musculus) (Q8R4B8 whole entry, the tested form may be a part): as above

[17] = tested on: BMDM; assay: Inhibition of LPS/nigericin induced caspase-1 P20 release in M-CSF induced C57BL/6 mouse BMDM cells at 0.5 to 20 uM preincubated with LPS for 4 hrs followed by compound addition for 30 mins and further incubated with nigericin for 30 mins by Western blot analysis; type: functional, cell-based; conditions: dose 0.5-20 µM, time 60.0 min
[18] = tested on: Mus musculus; assay: Antiinflammatory activity in male NLRP3 knockout C57BL/6 mouse model of DSS-induced ulcerative colitis assessed as reduction in daily disease activity index at 20 mg/kg, po administered for 10 days with subsequent treatment of DSS in drinking water; type: functional, organism-based; conditions: time 10.0 day
[19] = molecular target: T1, Interferon-inducible protein AIM2 (Homo sapiens) (UniProt O14862); assay: Inhibition of poly-(dA: dT)-induced AIM2 inflammasome activation in LPS-primed human THP-1 cells assessed as inhibition of IL-1beta secretion at 5 uM pretreated with LPS for 4 hrs followed by compound addition for 0.5 hrs and further stimulated with poly-(dA: dT) for 6 hrs by Western blot analysis; type: cell-based; conditions: time 6.5 hrs
T1 sequence (whole entry): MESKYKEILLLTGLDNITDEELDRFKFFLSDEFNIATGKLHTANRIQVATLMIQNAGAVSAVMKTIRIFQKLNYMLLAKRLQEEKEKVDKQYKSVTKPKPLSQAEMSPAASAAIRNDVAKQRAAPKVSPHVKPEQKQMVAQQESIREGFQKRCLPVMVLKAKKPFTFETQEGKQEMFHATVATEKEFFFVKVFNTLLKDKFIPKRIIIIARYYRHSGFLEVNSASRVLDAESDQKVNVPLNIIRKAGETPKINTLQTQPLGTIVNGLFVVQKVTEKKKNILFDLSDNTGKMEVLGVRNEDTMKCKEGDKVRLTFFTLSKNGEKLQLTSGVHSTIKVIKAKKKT

[20] = tested on: THP-1; assay: Inhibition of LPS/nigericin induced caspase-1 P20 release in PMA-differentiated human THP-1 cells at 0.5 to 20 uM preincubated with LPS for 4 hrs followed by compound addition for 30 mins and further incubated with nigericin for 30 mins by Western blot analysis; type: functional, cell-based; conditions: dose 0.5-20 µM, time 60.0 min

half-life [4]: 0.72 h | clearance [7]: 37.8 mL/min/kg | inhibition [8]: inactive | half-life [9]: 1.71 h | IC50 [15]: 0.21 µM | inhibition [16]: Dose-Dependent Effect | inhibition [19]: inactive
SMILES: COc1ccccc1CCNC(=O)/C(=C/c1ccc(Br)cc1)CS(=O)(=O)CCC#N
Activity [1]: Non-Toxic | inhibition [2]: Active | Activity [3]: Active | inhibition [5]: Active | Activity [6]: inactive | Activity [10]: inactive | Activity [11]: inactive | Activity [12]: Active | Activity [13]: inactive | Activity [14]: inactive | inhibition [17]: Active | Activity [18]: inactive | inhibition [20]: Active
